Data set [1] deals with Botryotinia fuckeliana (Botrytis cinerea). The data set is described as follows: Botryotinia fuckeliana (Botrytis cinerea)/Liquid Culture (Gray Mould). Conditions: 200 ppm, liquid culture, compared to untreated control, 3-4 days after application, read-out: control of Botryotinia fuckeliana. The format is cell-based.
Data set [2] deals with Fusarium culmorum. The data set is described as follows: microbe, parasite or virus in culture. In kind it is cell-based. The note with it: read-out: control of Fusarium culmorum.
Data set [3] concerns Glomerella lagenarium (Colletotrichum lagenarium). The data set can be described thus: Glomerella lagenarium (Colletotrichum lagenarium)/Liquid Culture (Anthracnose). In kind it is cell-based. Conditions: Colletotrichum orbiculare; 200 ppm; liquid culture, compared to untreated control, 3-4 days after application; read-out: control of Glomerella lagenarium.
The subject of data set [4] is Fusarium culmorum. The data set can be described thus: whole plant or invertebrate. In kind it is in vivo. Conditions: in Triticum aestivum, read-out: control of Fusarium culmorum.
Data set [5] relates to Monographella nivalis (Microdochium nivale). The data set can be described thus: Monographella nivalis (Microdochium nivale)/Liquid Culture (Foot Rot Cereals). In kind it is cell-based. The note with it: 200 ppm, liquid culture, compared to untreated control, 4-5 days after application, read-out: control of Monographella nivalis.
Data set [6] deals with Magnaporthe grisea (Pyricularia oryzae). The data set can be described thus: microbe, parasite or virus in culture. The note with it: read-out: control of Magnaporthe grisea. In kind it is cell-based.

`Cc1nc2c(F)cccc2cc1NC(=O)C(Cc1ccccc1)CC1(C)CC1` (centres unmarked): the melting point was in the range of 162 to 163 °C.

`Cc1c(NC(=O)C(Cc2ccccc2)CC2(C)CC2)cnc2c(F)cccc12` (centres unmarked) showed a melting point of 144 to 146 °C.

On to `CC1(CC(Cc2ccccc2)C(=O)Nc2cnc3c(F)cccc3c2)CC1` (centres unmarked), for which the melting point lay in the range of 135 to 136 °C.

`C=C(Cl)CC(Cc1ccccc1)C(=O)Nc1cc2cccc(F)c2nc1C` (centres unmarked) [Compound E-4, 2-benzyl-4-chloro-N-(8-fluoro-2-methyl-3-quinolyl)pent-4-enamide] showed a melting point of 96 to 99 °C. In addition, the inhibition of growth at 200 ppm in data set [1] was no less than 80%. For the same molecule, the inhibition of growth at 200 ppm in data set [2] was no less than 80%. For the same molecule, the inhibition of growth at 200 ppm in data set [3] is no less than 80%.

In the case of `C=C(Cl)CC(Cc1ccccc1)C(=O)Nc1cnc2c(F)cccc2c1C` (centres unmarked) [Compound E-5, 2-benzyl-4-chloro-N-(8-fluoro-4-methyl-3-quinolyl)pent-4-enamide], the melting point was in the range of 53 to 58 °C. Also, the inhibition of growth at 200 ppm in data set [1] is no less than 80%. Further, in data set [2], the inhibition of growth at 200 ppm is no less than 80%. The pest or weed control at 200 ppm in data set [4] is no less than 80%. Also, the inhibition of growth at 200 ppm in data set [5] is no less than 80%. The inhibition of growth at 200 ppm in data set [3] was no less than 80%.

Take `CC(C)CC(C)(Cc1ccccc1)C(=O)Nc1cnc2c(Cl)cccc2c1` (centres unmarked) [Compound E-9, 2-benzyl-N-(8-chloro-3-quinolyl)-2,4-dimethyl-pentanamide]: the melting point fell in the range of 163 to 165 °C. The inhibition of growth at 200 ppm in data set [1] is no less than 80%. Besides, the inhibition of growth at 200 ppm in data set [2] is no less than 80%. In data set [5], the inhibition of growth at 200 ppm is no less than 80%. Besides, in data set [6], the inhibition of growth at 200 ppm is no less than 80%. The inhibition of growth at 200 ppm in data set [3] was no less than 80%.

Consider `CC(Cc1ccccc1)C(=O)Nc1cnc2c(F)cccc2c1` (centres unmarked) [Compound E-31, N-(8-fluoro-3-quinolyl)-2-methyl-3-phenyl-propanamide], for which the melting point lay in the range of 188 to 190 °C. The inhibition of growth at 200 ppm in data set [1] was no less than 80%. In addition, in data set [2], the inhibition of growth at 200 ppm is no less than 80%. Further, the inhibition of growth at 200 ppm in data set [6] was no less than 80%. Moreover, in data set [3], the inhibition of growth at 200 ppm was no less than 80%.

In turn, `COCN(C(=O)C(C)(Cc1ccccc1)CC(F)(F)F)c1cnc2c(F)cccc2c1` (centres unmarked) [Compound E-33, 2-benzyl-4,4,4-trifluoro-N-(8-fluoro-3-quinolyl)-N-(methoxymethyl)-2-methyl-butanamide] returned a melting point of 108 to 110 °C. The inhibition of growth at 200 ppm in data set [1] is no less than 80%. Also, the inhibition of growth at 200 ppm in data set [2] is no less than 80%. The inhibition of growth at 200 ppm in data set [6] was no less than 80%. The inhibition of growth at 200 ppm in data set [3] was no less than 80%.

Consider `COC(Cc1ccccc1)(CC(C)C)C(=O)Nc1cnc2c(F)cccc2c1` (centres unmarked) [Compound E-38, 2-benzyl-N-(8-fluoro-3-quinolyl)-2-methoxy-4-methyl-pentanamide], for which the melting point is 133 to 135 °C. In data set [1], the inhibition of growth at 200 ppm is no less than 80%. Moreover, the inhibition of growth at 200 ppm in data set [2] was no less than 80%. Besides, the pest or weed control at 200 ppm in data set [4] was no less than 80%. The inhibition of growth at 200 ppm in data set [6] was no less than 80%. In addition, the inhibition of growth at 200 ppm in data set [3] is no less than 80%.

`CN(C(=O)C(C)(Cc1ccccc1)CC(F)(F)F)c1cnc2c(F)cccc2c1` (centres unmarked) [Compound E-42, 2-benzyl-4,4,4-trifluoro-N-(8-fluoro-3-quinolyl)-N,2-dimethyl-butanamide] yielded a melting point of 137 to 139 °C. Moreover, the inhibition of growth at 200 ppm in data set [1] is no less than 80%. For the same molecule, in data set [2], the inhibition of growth at 200 ppm is no less than 80%. For the same molecule, the inhibition of growth at 200 ppm in data set [6] was no less than 80%. The inhibition of growth at 200 ppm in data set [3] was no less than 80%.

`CC(C)=CC(C)(Cc1ccccc1)C(=O)Nc1cnc2c(F)cccc2c1` (centres unmarked) [Compound E-48, 2-benzyl-N-(8-fluoro-3-quinolyl)-2,4-dimethyl-pent-3-enamide] showed a melting point of 167 to 169 °C. Also, in data set [1], the inhibition of growth at 200 ppm is no less than 80%. In addition, the inhibition of growth at 200 ppm in data set [2] is no less than 80%. In addition, the pest or weed control at 200 ppm in data set [4] was no less than 80%. For the same molecule, the inhibition of growth at 200 ppm in data set [6] was no less than 80%. In addition, the inhibition of growth at 200 ppm in data set [3] is no less than 80%.

`CC(Cc1ccccc1)(CC(F)(F)F)C(=O)Nc1cnc2cccc(F)c2c1` (centres unmarked) [Compound E-49, 2-benzyl-4,4,4-trifluoro-N-(5-fluoro-3-quinolyl)-2-methyl-butanamide] showed a melting point of 140 to 142 °C. Also, in data set [1], the inhibition of growth at 200 ppm was no less than 80%. In addition, the inhibition of growth at 200 ppm in data set [2] was no less than 80%. Besides, the inhibition of growth at 200 ppm in data set [6] was no less than 80%.

`CC(Cc1ccccc1)(CC(F)(F)F)C(=O)Nc1cnc2cc(F)ccc2c1` (centres unmarked) [Compound E-52, 2-benzyl-4,4,4-trifluoro-N-(7-fluoro-3-quinolyl)-2-methyl-butanamide]: the melting point lay within 180 to 182 °C. The inhibition of growth at 200 ppm in data set [1] is no less than 80%. For the same molecule, the inhibition of growth at 200 ppm in data set [2] was no less than 80%. In addition, the inhibition of growth at 200 ppm in data set [5] was no less than 80%. Further, in data set [6], the inhibition of growth at 200 ppm was no less than 80%. Moreover, the inhibition of growth at 200 ppm in data set [3] was no less than 80%.

`C=C(CC)CC(C)(Cc1ccccc1)C(=O)Nc1cnc2c(F)cccc2c1` (centres unmarked) [Compound E-54, 2-benzyl-N-(8-fluoro-3-quinolyl)-2-methyl-4-methylene-hexanamide] showed a melting point of 118 to 120 °C. In addition, in data set [1], the inhibition of growth at 200 ppm was no less than 80%. Further, in data set [2], the inhibition of growth at 200 ppm was no less than 80%. The inhibition of growth at 200 ppm in data set [6] is no less than 80%. In data set [3], the inhibition of growth at 200 ppm was no less than 80%.

For `CC(C=C(F)F)(Cc1ccccc1)C(=O)Nc1cnc2c(F)cccc2c1` (centres unmarked) [Compound E-57, 2-benzyl-4,4-difluoro-N-(8-fluoro-3-quinolyl)-2-methyl-but-3-enamide], the inhibition of growth at 200 ppm in data set [1], in data set [2], in data set [5], in data set [6] and in data set [3] was no less than 80% throughout. For the same molecule, the pest or weed control at 200 ppm in data set [4] is no less than 80%.

Regarding `C=C(C)CC(C)(Cc1ccccc1)C(=O)Nc1cnc2c(Br)cccc2c1` (centres unmarked) [Compound E-63, 2-benzyl-N-(8-bromo-3-quinolyl)-2,4-dimethyl-pent-4-enamide], the melting point is 165 to 169 °C. Further, the inhibition of growth at 200 ppm in data set [1] was no less than 80%. In addition, the inhibition of growth at 200 ppm in data set [2] is no less than 80%. For the same molecule, the pest or weed control at 200 ppm in data set [4] is no less than 80%. In addition, the inhibition of growth at 200 ppm in data set [6] was no less than 80%.

For the molecule `C=C(C)CC(C)(Cc1ccccc1)C(=O)Nc1cnc2ccccc2c1` (centres unmarked) [Compound E-64, 2-benzyl-2,4-dimethyl-N-(3-quinolyl)pent-4-enamide], the inhibition of growth at 200 ppm in data set [1], in data set [2], in data set [5], in data set [6] and in data set [3] was no less than 80% in each case. The pest or weed control at 200 ppm in data set [4] was no less than 80%.

With `C=CCC(C)(Cc1ccccc1)C(=O)Nc1cnc2c(F)cccc2c1` (centres unmarked) [Compound E-78, 2-benzyl-N-(8-fluoro-3-quinolyl)-2-methyl-pent-4-enamide], the melting point fell in the range of 146 to 149 °C. For the same molecule, in data set [1], the inhibition of growth at 200 ppm was no less than 80%. Also, the inhibition of growth at 200 ppm in data set [2] was no less than 80%. For the same molecule, the pest or weed control at 200 ppm in data set [4] is no less than 80%. The inhibition of growth at 200 ppm in data set [5] is no less than 80%. In addition, the inhibition of growth at 200 ppm in data set [3] was no less than 80%.

In turn, `Cc1c(NC(=O)C(C)(Cc2ccccc2)CC(C)C)cnc2c(F)cccc12` (centres unmarked) [Compound E-84, 2-benzyl-N-(8-fluoro-4-methyl-3-quinolyl)-2,4-dimethyl-pentanamide] showed a melting point of 73 to 79 °C. For the same molecule, the inhibition of growth at 200 ppm in data set [1] is no less than 80%. Further, the inhibition of growth at 200 ppm in data set [2] was no less than 80%. Further, the pest or weed control at 200 ppm in data set [4] was no less than 80%. The inhibition of growth at 200 ppm in data set [5] was no less than 80%. In addition, the inhibition of growth at 200 ppm in data set [3] is no less than 80%.

For `CC(C)(C)C(Cc1ccccc1)C(=O)Nc1cnc2c(F)cccc2c1` (centres unmarked) [Compound E-88, 2-benzyl-N-(8-fluoro-3-quinolyl)-3,3-dimethyl-butanamide], the melting point was 212 to 215 °C. In addition, in data set [1], the inhibition of growth at 200 ppm is no less than 80%. Moreover, the inhibition of growth at 200 ppm in data set [2] was no less than 80%. Also, the pest or weed control at 200 ppm in data set [4] is no less than 80%. Moreover, in data set [6], the inhibition of growth at 200 ppm is no less than 80%.

With `C=C(C)CC(Cc1ccccc1)C(=O)Nc1cc2cccc(F)c2nc1C` (centres unmarked) [Compound E-92, 2-benzyl-N-(8-fluoro-2-methyl-3-quinolyl)-4-methyl-pent-4-enamide], the melting point lay within 97 to 99 °C. Further, the inhibition of growth at 200 ppm in data set [1] was no less than 80%. For the same molecule, in data set [2], the inhibition of growth at 200 ppm was no less than 80%. The pest or weed control at 200 ppm in data set [4] is no less than 80%. In addition, in data set [3], the inhibition of growth at 200 ppm is no less than 80%.

`C=C(C)CC(Cc1ccccc1)C(=O)Nc1cnc2c(F)cccc2c1` (centres unmarked) [Compound E-94, 2-benzyl-N-(8-fluoro-3-quinolyl)-4-methyl-pent-4-enamide] returned a melting point of 170 to 172 °C. The inhibition of growth at 200 ppm in data set [1] was no less than 80%. The inhibition of growth at 200 ppm in data set [2] is no less than 80%. In addition, the inhibition of growth at 200 ppm in data set [5] was no less than 80%. For the same molecule, the inhibition of growth at 200 ppm in data set [3] was no less than 80%.

For the molecule `C=C(C)C[C@](C)(Cc1ccccc1)C(=O)Nc1cnc2c(F)cccc2c1` [Compound F-22, (2R)-2-benzyl-N-(8-fluoro-3-quinolyl)-2,4-dimethyl-pent-4-enamide], the melting point lay within 133 to 135 °C. In data set [1], the inhibition of growth at 200 ppm was no less than 80%. The inhibition of growth at 200 ppm in data set [2] is no less than 80%. Besides, the inhibition of growth at 200 ppm in data set [5] was no less than 80%. In data set [3], the inhibition of growth at 200 ppm was no less than 80%.

One may read the melting point as the temperature, or range, at which the solid turns liquid.

Source of the values: patent publication US10952436B2, “Microbiocidal quinoline (thio)carboxamide derivatives” (SYNGENTA PARTICIPATIONS AG, priority 2017, dated 2021).
